# Experimental data as given in patent US20100292185A1, “BETA-LACTAMASE INHIBITORS” (priority 2009, published 2010).
# Counter-ions that a name gives are not always drawn.
# Tests used:
# [1] = test system: E. cloacae expressing the Class C P99+; assay: In vitro antibacterial assay of β-lactamase inhibition (broth microdilution MIC), E. cloacae P99+; assay type: cell-based; conditions: for MIC: Enterobacter cloacae, read-out: MIC alone, E. cloacae P99+ AmpC
# Source text: (§1) To determine the ability of test compounds to potentiate the inhibition of the growth of bacterial strains producing beta-lactamase enzymes, classic cell based screening assays were employed. Five bacteria strains producing beta-lactamase enzymes were used: K. pneumoniae expressing the Class A Extended Spectrum Beta-Lactamase (ESBL) CTX-M-15, E. coli expressing the Class A ESBL SHV-5, E. cloacae expressing the Class C P99+, K. pneumoniae expressing the Class A carbapenemase KPC-2, and P. aeruginosa expressing the Class B metallo β-lactamase VIM-2. In order to evaluate the ability of test compounds to inhibit beta-lactamase activity, Applicants used a modification of the broth microdilution assay. The assay was conducted in Cation Adjusted Mueller Hinton Broth (CAMHB, BD # 212322, BD Diagnostic Systems, Sparks, Md.). Bacteria strains were grown for 3-5 hours in CAMBH broth. All five strains were grown in presence of 50 μg/mL ampicillin to ensure resistance is maintained. In the meantime, test compounds were diluted in DMSO to a 0.1 mg/mL stock. The compounds were added to a microtiter plate and were diluted in 2-fold serial dilutions in CAMHB in a final concentration range of 8 μg/mL to 0.015 μg/ml. […] Each of these compound plates are made in quadruplicate, one for each bacteria strain. In addition to the titration of test compounds the MICs of a panel of cephalosporins is also tested to ensure the strains are behaving consistently from test to test. Once the test compound and cephalosporin are added the plates can be inoculated. Inocula are conducted according to CLSI broth microdilution method. After inoculation the plates are incubated for 16-20 hours at 37° C. then the Minimal Inhibitory Concentration (MIC) of the test compound is determined visually.
# (§2) Using the methodology described above, examples of the current invention were evaluated for their ability to inhibit the growth of β-lactamase producing bacteria in the presence of a β-lactam antibiotic.
# [2] = test system: K. pneumoniae expressing the Class A carbapenemase KPC-2; assay: microbe, parasite or virus in culture; assay type: cell-based; conditions: for MIC: Klebsiella pneumoniae, read-out: MIC alone, K. pneumoniae KPC-2
# Source text: as §1, §2
# [3] = test system: E. coli expressing the Class A ESBL SHV-5; assay: In vitro antibacterial assay of β-lactamase inhibition (broth microdilution MIC), E. coli SHV-5; assay type: cell-based; conditions: for MIC: Escherichia coli, read-out: MIC alone, E. coli SHV-5
# Source text: as §1, §2
# [4] = test system: P. aeruginosa expressing the Class B metallo β-lactamase VIM-2; assay: In vitro antibacterial assay of β-lactamase inhibition (broth microdilution MIC), P. aeruginosa VIM-2; assay type: cell-based; conditions: for MIC: Pseudomonas aeruginosa, read-out: MIC alone, P. aeruginosa VIM-2; for MIC of example compound, P. aeruginosa VIM-2: in presence of Ceftazidime 16 μg/mL (Examples 1-56)
# Source text: as §1, §2
# [5] = test system: K. pneumoniae expressing the Class A Extended Spectrum Beta-Lactamase (ESBL) CTX-M-15; assay: In vitro antibacterial assay of β-lactamase inhibition (broth microdilution MIC), K. pneumoniae CTX-M-15; assay type: cell-based; conditions: for MIC: Klebsiella pneumoniae, read-out: MIC alone, K. pneumoniae CTX-M-15
# Source text: as §1, §2
# CTX-M15 β-lactamase = target: T1, CTX-M15 β-lactamase (Escherichia coli, UniProt Q9EXV5); assay: β-lactamase enzyme inhibition assay (nitrocefin substrate), CTXM-15; assay type: biochemical
# T1 construct: expressed as native untagged proteins; made in house; host or cells: E. coli BL21(DE3)
# T1 sequence (Q9EXV5 entry or part of it): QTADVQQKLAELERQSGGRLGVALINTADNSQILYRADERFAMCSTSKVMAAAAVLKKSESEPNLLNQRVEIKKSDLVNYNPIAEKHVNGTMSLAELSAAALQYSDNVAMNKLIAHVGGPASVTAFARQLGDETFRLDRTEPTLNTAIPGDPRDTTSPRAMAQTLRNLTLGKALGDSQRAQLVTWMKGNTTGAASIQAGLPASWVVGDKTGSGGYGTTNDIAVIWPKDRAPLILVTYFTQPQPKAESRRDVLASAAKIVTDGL
# Method: (§3) Isolation of β-lactamases. For SHV-5, p99 AmpC, KPC-2 and CTX-M15 β-lactamases, E. coli BL21(DE3) bacterial cells carrying expression plasmids (expressed as native untagged proteins) for the individual β-lactamases were grown in 1 L of Superbroth (Teknova Inc. Hollister, Calif.) supplemented with 100 μg/ml kanamycin and 1×5052 (0.5% glycerol, 0.05% glucose and 0.2% α-lactose) at 35° C. for 18-20 hours. Cells were harvested by centrifugation (4,000×g, 4° C., 20 min), and resuspended in 50 ml of 10 mM HEPES pH 7.5 (1/20 of the initial volume). The cells were lysed by sonication (5 pulses of 45 seconds) at 45 W on ice. The lysates were clarified by centrifugation at 10,000×g for 40 minutes at 4° C. Samples were diluted 5-fold in 50 mM sodium acetate pH 5.0, stored overnight at 4° C., after which they were centrifuged at 10,000×g for 30 minutes to clarify, and filtered through 0.45 μm filters. The samples were loaded onto a 5 ml Capto S sepharose cation exchange column (GE Healthcare) pre-equilibrated with 50 mM sodium acetate pH 5.0. The column was washed with 5 column volumes of 50 mM sodium acetate pH 5.0 to wash out unbound protein and a linear gradient of NaCl (0 to 500 mM) was used to elute the protein (over 16 CV) from the column. Fractions were assayed for β-lactamase activity using Centa (Calbiochem, Gibbstown, N.J.) as a reporter β-lactamase substrate for activity in the isolated fractions. Active fractions were pooled, concentrated and further purified by gel filtration chromatography on a Superdex 75 prep grade gel filtration column (GE Healthcare, Piscataway, N.J.) pre-equilibrated in 50 mM Hepes pH 7.5, 150 mM NaCl. Active fractions were pooled concentrated, quantitated by BCA protein determination (Thermo Scientific, Rockford, Ill.), and frozen at −80° C. in 20% glycerol until use.
# (§4) β-lactamase Inhibition. To determine the level of inhibition of β-lactamase enzymes, compounds were diluted in PBS at pH 7.0 to yield concentrations between 100 and 0.005 μM in microtiter plates. An equal volume of diluted enzyme stock was added, and the plates were incubated at 37° C. for 10 min. Nitrocefin solution was then dispensed as substrate into each well at a final concentration of 100 μM, and the plates were immediately read with the kinetic program at 486 nm for 10 min on the SPECTRAMAX® Plus^384 (high-throughput microplate spectrophotometer; Molecular Devices Corp., Sunnyvale, Calif.). Maximum rates of metabolism were then compared to those in control wells (without inhibitors), and percentages of enzyme inhibition were calculated for each concentration of inhibitor. The concentration of inhibitor needed to reduce the initial rate of hydrolysis of substrate by 50% (IC50) was calculated as the residual activity of β-lactamase at 486 nm using the SoftMax Pro 5.0 software (Molecular Devices Corp.).
# (§5) Using the methodology described above, examples of the current invention were evaluated for their ability to inhibit β-lactamase enzymes. The results of these assays are summarized in Table 2 for representative enzymes across different subtypes (note SHV-5 and CTXM-15 exemplify different subclasses of Ambler Class A Extended Spectrum Beta Lactamases, KPC-2 exemplifies Class A carbapenemases, P99 represents chromosomal Class C AmpC, VIM-2 exemplifies subclass B1 of metallo-β-lactamases, and OXA-23 represents chromosome-encoded Class D oxacillin-hydrolyzing β-lactamases), NT=not tested.
# KPC-2 β-lactamase = target: T2, KPC-2 β-lactamase (Klebsiella pneumoniae, UniProt Q9F663); assay: β-lactamase enzyme inhibition assay (nitrocefin substrate), KPC-2; assay type: biochemical
# T2 construct: expressed as native untagged proteins; made in house; host or cells: E. coli BL21(DE3)
# T2 sequence (Q9F663 25-293 limits assumed): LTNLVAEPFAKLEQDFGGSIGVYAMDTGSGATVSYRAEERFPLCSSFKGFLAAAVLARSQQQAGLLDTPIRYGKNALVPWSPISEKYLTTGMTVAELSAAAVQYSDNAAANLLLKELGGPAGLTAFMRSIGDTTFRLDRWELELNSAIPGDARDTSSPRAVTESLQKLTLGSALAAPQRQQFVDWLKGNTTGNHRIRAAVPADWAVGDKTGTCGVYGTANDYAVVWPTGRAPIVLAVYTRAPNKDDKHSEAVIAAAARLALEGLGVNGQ
# Method: as §3, §4, §5
# p99 AmpC β-lactamase = target: T3, p99 AmpC β-lactamase (Enterobacter cloacae, UniProt P05364); assay: β-lactamase enzyme inhibition assay (nitrocefin substrate), P99 AmpC; assay type: biochemical; conditions: nitrocefin 100 μM, 37° C., PBS pH 7.0; read-out: P99 AmpC IC50
# T3 construct: expressed as native untagged proteins; made in house; host or cells: E. coli BL21(DE3)
# T3 sequence (P05364 21-381): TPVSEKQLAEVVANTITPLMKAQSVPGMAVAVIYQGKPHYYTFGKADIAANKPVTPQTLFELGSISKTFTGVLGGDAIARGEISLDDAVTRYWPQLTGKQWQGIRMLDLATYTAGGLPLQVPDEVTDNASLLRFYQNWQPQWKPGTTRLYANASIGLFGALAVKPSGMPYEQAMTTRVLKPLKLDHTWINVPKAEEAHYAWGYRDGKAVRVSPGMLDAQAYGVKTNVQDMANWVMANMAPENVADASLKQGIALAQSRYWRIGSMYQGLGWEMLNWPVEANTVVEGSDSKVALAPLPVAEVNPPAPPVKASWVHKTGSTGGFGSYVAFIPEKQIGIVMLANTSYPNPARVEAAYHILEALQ
# Method: as §3, §4, §5
# SHV-5 β-lactamase = target: T4, SHV-5 β-lactamase (Klebsiella pneumoniae, UniProt P0A3M1); assay: β-lactamase enzyme inhibition assay (nitrocefin substrate), SHV-5; assay type: biochemical
# T4 construct: expressed as native untagged proteins; made in house; host or cells: E. coli BL21(DE3)
# T4 sequence (P0A3M1 22-286): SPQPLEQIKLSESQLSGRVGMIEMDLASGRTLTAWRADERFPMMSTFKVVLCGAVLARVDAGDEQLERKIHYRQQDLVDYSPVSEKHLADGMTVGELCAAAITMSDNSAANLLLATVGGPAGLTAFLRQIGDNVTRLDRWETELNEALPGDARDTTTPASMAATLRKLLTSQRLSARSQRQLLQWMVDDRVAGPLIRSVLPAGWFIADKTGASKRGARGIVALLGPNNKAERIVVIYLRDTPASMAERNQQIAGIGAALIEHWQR
# Method: as §3, §4, §5
# [6] = in presence of Ceftazidime 8 μg/ml (Examples 1-56)
# [7] = in presence of Piperacillin 16 μg/ml (Examples 57-65)
SMILES,MIC [1] [mg/L],MIC [2] [mg/L],MIC [3] [mg/L],MIC [4] [mg/L],MIC [5] [mg/L],IC50 (CTX-M15 β-lactamase) [nM],"MIC of example compound, E. cloacae P99+ [1, 6] [mg/L]",IC50 (KPC-2 β-lactamase) [nM],"MIC of example compound, K. pneumoniae KPC-2 [2, 6] [mg/L]",IC50 (p99 AmpC β-lactamase) [nM],"MIC of example compound, E. coli SHV-5 [3, 6] [mg/L]",IC50 (SHV-5 β-lactamase) [nM],"MIC of example compound, P. aeruginosa VIM-2 [4] [mg/L]","MIC of example compound, K. pneumoniae CTX-M-15 [5, 6] [mg/L]","MIC of example compound, E. cloacae P99+ [1, 7] [mg/L]","MIC of example compound, K. pneumoniae KPC-2 [2, 7] [mg/L]","MIC of example compound, E. coli SHV-5 [3, 7] [mg/L]","MIC of example compound, K. pneumoniae CTX-M-15 [5, 7] [mg/L]"
"CC(C)(O/N=C(\C(=O)N[C@@H]1C(=O)N2C(C(=O)[O-])=C(C[n+]3ccccc3)CS[C@H]12)c1csc(N)n1)C(=O)O [Ceftazidime, reference compound]",128,32,> 1020,128,128,,,,,,,,,,,,,
"Cl.O=C(N[C@@H](Cc1cccc(C(=O)O)c1O)B(O)O)c1ccc(CNCCO)cc1 [Example 16, (1R)-[4-(2-hydroxy-ethylamino)-methyl]-benzoylamino-(3-carboxy-2-hydroxy)benzyl-methyl boronic acid hydrochloride]",,,,,,5,0.25,5,0.03,6,8,> 1000,4,1,,,,
"Cl.O=C(N[C@@H](Cc1cccc(C(=O)O)c1O)B(O)O)c1ccc(CNCc2cccnc2)cc1 [Example 17, (1R)-[4-(pyridin-3-ylmethylaminomethyl]-benzoylamino-(3-carboxy-2-hydroxy)benzyl-methylboronic acid hydrochloride]",,,,,,5,,15,,8,,> 1000,,,,,,
Cl.O=C(N[C@@H](Cc1cccc(C(=O)O)c1O)B(O)O)c1ccc(CNCc2cccnc2)cc1 [Example 17],,,,,,,1,,0.12,,>8,,>8,2,,,,
"O=C(N[C@@H](Cc1cccc(C(=O)O)c1O)B(O)O)c1cccc(CN(CCO)CCO)c1 [Example 23, (1R)-(3-{[bis-(2-hydroxy-ethyl)-amino]-methyl}-benzoylamino)-(3-carboxy-2-hydroxy)benzyl-methylboronic acid formate]",,,,,,2,2,8.1,0.12,0.9,8,17,>8,1,,,,
"N=C(N)NCCC[C@H](NCc1ccc(CC(=O)N[C@@H](Cc2cccc(C(=O)O)c2O)B(O)O)cc1)C(=O)O [Example 59, (1R)-1-(2-{4-[(1-Carboxy-4-guanidino-butylamino)-methyl]-phenyl}-acetylamino)-1-[(3-carboxy-2-hydroxy)benzyl]-methylboronic acid formate]",,,,,,,,15,,6,,2,,,2,1,0.5,>16
"O=C(Cc1ccc(CNC(CO)C(=O)O)cc1)N[C@@H](Cc1cccc(C(=O)O)c1O)B(O)O (stereo partly drawn) [Example 60, (1R)-1-(2-{4-[(1-Carboxy-2-hydroxy-ethylamino)-methyl]-phenyl}-acetylamino)-1-[(3-carboxy-2-hydroxy)benzyl]-methylboronic acid formate]",,,,,,,,11,,9,,2,,,2,0.5,1,>16
"N=C(N)NCc1ccc(CC(=O)N[C@@H](Cc2cccc(C(=O)O)c2O)B(O)O)cc1 [Example 61, (1R)-1-{2-[4-(1-guanidinomethyl)-phenyl]-acetylamino}-1-[(3-carboxy-2-hydroxy)benzyl]-methylboronic acid formate salt]",,,,,,4,,14,,11,,2,,,0.25,0.25,0.25,16
"N=C(N)c1ccc(CC(=O)N[C@@H](Cc2cccc(C(=O)O)c2O)B(O)O)cc1 [Example 62, (1R)-1-{2-[4-(Carbamimidoyl)-phenyl]-acetylamino}-1-[(3-carboxy-2-hydroxy)benzyl]-methylboronic acid formate salt]",,,,,,,,9,,3,,2,,,0.125,0.125,0.125,>128
"N=C(N)NCc1cccc(CC(=O)N[C@@H](Cc2cccc(C(=O)O)c2O)B(O)O)c1 [Example 65, (1R)-1-{2-[3-(1-guanidinomethyl)-phenyl]-acetylamino}-1-[(3-carboxy-2-hydroxy)benzyl]-methylboronic acid formate salt]",,,,,,,,,,,,,,,0.25,0.5,0.25,>16
"CCN1CCN(C(=O)N[C@@H](C(=O)N[C@@H]2C(=O)N3[C@@H]2SC(C)(C)[C@@H]3C(=O)O)c2ccccc2)C(=O)C1=O [Pip, Piperacillin, reference compound]",> 128,> 128,> 128,> 128,> 128,,,,,,,,,,,,,
